Columns and labels:
HBV [1] = assay: anti-HBV activity, HepG2.2.15 stable transfected cell line, HBV DNA from secreted virions by realtime PCR; type: cell-based; details: Hepatitis B virus, 144 h, HepG2.2.15 cells, 6 days of treatment
[2] = Cytotoxicity, HepG2 cells, Resazurin assay; type: cell-based; details: human
HBV [3] = assay: anti HBV activity, HepG2.117 inducibly HBV producing cell line (Tet-off), intracellular HBV DNA by realtime PCR; type: cell-based; details: Hepatitis B virus, 72 h, HepG2.117 cells, 3 days of treatment
[4] = ATP based toxicity assay (ATPlite), HepG2 cell line; details: human, HepG2 cells, ATPlite (ATP levels)
Outline: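 HepG2 cells exposed to compound, then ATPlite reagent added at 1 volume. Cellular ATP read by luminescence as a viability measure.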

Row | Compound | EC50 (HBV [1]) [nM] | CC50 at 4 days [2] [nM] | melting point [°C] | EC50 (HBV [3]) [nM] | CC50 at 4 days [4] [nM]
1 | C[C@@H](NS(=O)(=O)c1cn(C)c(C(=O)Nc2ccnc(F)c2)c1Cl)C(F)(F)F [Compound 11, 3-Chloro-N-(2-fluoropyridin-4-yl)-1-methyl-4-{[(1R)-2,2,2-trifluoro-1-methylethyl]sulfamoyl}-1H-pyrrole-2-carboxamide] | 20 | > 25000 | 218.1 | 60 | 
2 | C[C@@H](NS(=O)(=O)c1cn(C)c(C(=O)Nc2ccncc2)c1Cl)C(F)(F)F [Compound 16, 3-chloro-1-methyl-N-(4-pyridyl)-4-[[(1R)-2,2,2-trifluoro-1-methyl-ethyl]sulfamoyl]pyrrole-2-carboxamide] | 400 | > 25000 | 259.3 | 280 | 
3 | C[C@@H](NS(=O)(=O)c1cn(C)c(C(=O)Nc2cccnc2)c1Cl)C(F)(F)F [Compound 17, 3-chloro-1-methyl-N-(3-pyridyl)-4-[[(1R)-2,2,2-trifluoro-1-methyl-ethyl]sulfamoyl]pyrrole-2-carboxamide] | 750 | > 25000 | 196.6 | 530 | 
4 | C[C@@H](NS(=O)(=O)c1cn(C)c(C(=O)Nc2ccnc(C#N)c2)c1Cl)C(F)(F)F [Compound 9, 3-Chloro-N-(2-cyanopyridin-4-yl)-1-methyl-4-{[(1R)-2,2,2-trifluoro-1-methylethyl]sulfamoyl}-1H-pyrrole-2-carboxamide] | 20 | > 25000 | 190.8 | 40 | > 25000
5 | C[C@@H](NS(=O)(=O)c1cn(C)c(C(=O)Nc2ccccn2)c1Cl)C(F)(F)F [Compound 15, 3-chloro-1-methyl-N-(2-pyridyl)-4-[[(1R)-2,2,2-trifluoro-1-methyl-ethyl]sulfamoyl]pyrrole-2-carboxamide] | > 1000 | > 25000 | 195.2 | > 1000 | 
6 | Cc1cc(NC(=O)c2c(Cl)c(S(=O)(=O)N[C@H](C)C(F)(F)F)cn2C)ccn1 [Compound 8, 3-Chloro-1-methyl-N-(2-methylpyridin-4-yl)-4-{[(1R)-2,2,2-trifluoro-1-methylethyl]sulfamoyl}-1H-pyrrole-2-carboxamide] | 90 | > 25000 | 203.5 | 170 | 
7 | Cc1nccc(NC(=O)c2c(Cl)c(S(=O)(=O)N[C@H](C)C(F)(F)F)cn2C)c1F [Compound 14, 3-chloro-N-(3-fluoro-2-methyl-4-pyridyl)-1-methyl-4-[[(1R)-2,2,2-trifluoro-1-methyl-ethyl]sulfamoyl]pyrrole-2-carboxamide] | 60 | > 25000 | 197.8 | 120 | 
8 | C[C@@H](NS(=O)(=O)c1cn(C)c(C(=O)Nc2ccnc(C(F)F)c2)c1F)C(C)(F)F [Compound 88, 4-[[(1R)-2,2-difluoro-1-methyl-propyl]sulfamoyl]-N-[2-(difluoromethyl)-4-pyridyl]-3-fluoro-1-methyl-pyrrole-2-carboxamide] | 7 | > 25000 |  | 10 | > 25000
9 | C[C@@H](NS(=O)(=O)c1cn(C)c(C(=O)Nc2ccnc(Br)c2)c1Cl)C(C)(F)F [Compound 105, N-(2-bromo-4-pyridyl)-3-chloro-4-[[(1R)-2,2-difluoro-1-methyl-propyl]sulfamoyl]-1-methyl-pyrrole-2-carboxamide] | < 100 | > 25000 |  | 20 | 23300
10 | C[C@@H](NS(=O)(=O)c1cn(C)c(C(=O)Nc2ccnc(F)c2)c1F)C(F)(F)F [Compound 24, 3-fluoro-N-(2-fluoro-4-pyridyl)-1-methyl-4-[[(1R)-2,2,2-trifluoro-1-methyl-ethyl]sulfamoyl]pyrrole-2-carboxamide] | 40 | > 25000 |  | 40 | > 25000
11 | Cc1nc(NC(=O)c2c(Cl)c(S(=O)(=O)N[C@H](C)C(F)(F)F)cn2C)ccc1F [Compound 7, 3-Chloro-N-(5-fluoro-6-methylpyridin-2-yl)-1-methyl-4-{[(1R)-2,2,2-trifluoro-1-methylethyl]sulfamoyl}-1H-pyrrole-2-carboxamide] | 90 | > 25000 | 173.1 | 250 | > 25000
12 | C[C@@H](NS(=O)(=O)c1cn(C)c(C(=O)Nc2ccnc(F)c2)c1Cl)C(C)(F)F [Compound 95, 3-chloro-4-[[(1R)-2,2-difluoro-1-methyl-propyl]sulfamoyl]-N-(2-fluoro-4-pyridyl)-1-methyl-pyrrole-2-carboxamide] | 60 | 21600 |  | 40 | > 25000
13 | C[C@@H](NS(=O)(=O)c1cn(C)c(C(=O)Nc2ccnc(Cl)c2)c1Cl)C(F)(F)F [Compound 12, 3-Chloro-N-(2-chloropyridin-4-yl)-1-methyl-4-{[(1R)-2,2,2-trifluoro-1-methylethyl]sulfamoyl}-1H-pyrrole-2-carboxamide] | 10 | > 25000 | 214.8 | 20 | > 25000
14 | Cc1cc(NC(=O)c2c(F)c(S(=O)(=O)N[C@H](C)C(F)(F)F)cn2C)cc(F)n1 [Compound 152, 3-fluoro-N-(2-fluoro-6-methyl-4-pyridyl)-1-methyl-4-[[(1R)-2,2,2-trifluoro-1-methyl-ethyl]sulfamoyl]pyrrole-2-carboxamide] | < 100 | > 25000 |  | 10 | > 25000
15 | Cn1cc(S(=O)(=O)NC2(C)CC(F)(F)C2)c(Cl)c1C(=O)Nc1ccnc(C(F)F)c1 [Compound 99, 3-chloro-4-[(3,3-difluoro-1-methyl-cyclobutyl)sulfamoyl]-N-[2-(difluoromethyl)-4-pyridyl]-1-methyl-pyrrole-2-carboxamide] | 10 | > 25000 |  | 20 | > 25000

Reference: patent US11078193B2 (priority 2014, dated 2021)
